Source: PubChem BioAssay AID192 (DTP/NCI, 2004)
Toxic doses and inconclusive results are not listed. How the source made its calls: active means survival T/C of 150% or more; inactive means T/C below 125% in these data.

Test system: BDF1 mice, B16 melanoma ip, median survival T/C
Assay: NCI In Vivo Anticancer Drug Screen. Data for tumor model B16 Melanoma (intraperitoneal) in B6D2F1 (BDF1) mice
Settings: endpoint: median survival time, higher = longer survival
Procedure, shortened: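 The ratio T/C compares compound-treated mice with vehicle-treated controls, using survival or tumor size as the endpoint in a transplantable tumor model.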

[1] = dose: 100.0 mg/kg/injection, schedule: Q01DX009 (ip), vehicle: Klucel (hydroxypropylcellulose) (HPC)
[2] = dose: 200.0 mg/kg/injection, schedule: Q01DX009 (ip), vehicle: Klucel (hydroxypropylcellulose) (HPC)
[3] = dose: 100.0 mg/kg/injection, schedule: Q01DX009 (ip), vehicle: saline with Tween-80
[4] = dose: 200.0 mg/kg/injection, schedule: Q01DX009 (ip), vehicle: saline with Tween-80
[5] = dose: 400.0 mg/kg/injection, schedule: Q01DX009 (ip), vehicle: saline with Tween-80
[6] = dose: 25.0 mg/kg/injection, schedule: Q01DX009 (ip), vehicle: Klucel (hydroxypropylcellulose) (HPC)
[7] = dose: 50.0 mg/kg/injection, schedule: Q01DX009 (ip), vehicle: Klucel (hydroxypropylcellulose) (HPC)
[8] = dose: 50.0 mg/kg/injection, schedule: Q01DX009 (ip), vehicle: saline
[9] = dose: 200.0 mg/kg/injection, schedule: Q01DX009 (ip), vehicle: saline

Measured: T/C

O=C[C@@H](CO)O[C@H](C=O)n1cnc2c(=O)[nH]cnc21
inactive: dose: 37.5 mg/kg/injection, schedule: Q01DX009 (ip), vehicle: saline 95 % of control | dose: 75.0 mg/kg/injection, schedule: Q01DX009 (ip), vehicle: saline 95 % of control | dose: 150.0 mg/kg/injection, schedule: Q01DX009 (ip), vehicle: saline 88 % of control

C1=Cc2ccccc2/C1=C/c1ccc(/C=C2\C=Cc3ccccc32)cc1
inactive: dose: 100.0 mg/kg/injection, schedule: Q04DX003 (ip), vehicle: Klucel (hydroxypropylcellulose) (HPC) 98 % of control | dose: 200.0 mg/kg/injection, schedule: Q04DX003 (ip), vehicle: Klucel (hydroxypropylcellulose) (HPC) 102 % of control | dose: 400.0 mg/kg/injection, schedule: Q04DX003 (ip), vehicle: Klucel (hydroxypropylcellulose) (HPC) 92 % of control

CN(N=O)C(N)=O
inactive: dose: 3.13 mg/kg/injection, schedule: Q01DX009 (ip), vehicle: saline 114 % of control | dose: 6.25 mg/kg/injection, schedule: Q01DX009 (ip), vehicle: saline 116 % of control

c1ccc([Te][Te]c2ccccc2)cc1
inactive: dose: 3.0 mg/kg/injection, schedule: Q01DX009 (ip), vehicle: saline with Tween-80 123 % of control | dose: 6.0 mg/kg/injection, schedule: Q01DX009 (ip), vehicle: saline with Tween-80 123 % of control

CN(C)CCCNC(=O)Nc1ccccc1
inactive: [1] 100 % of control | [2] 92 % of control

O=C1C=C(C2CCCCC2)C(=O)c2ccccc21
inactive: dose: 12.5 mg/kg/injection, schedule: Q01DX009 (ip), vehicle: saline with Tween-80 106 % of control | dose: 25.0 mg/kg/injection, schedule: Q01DX009 (ip), vehicle: saline with Tween-80 101 % of control | dose: 50.0 mg/kg/injection, schedule: Q01DX009 (ip), vehicle: saline with Tween-80 92 % of control | [3] 92 % of control

CCCCCCC(=O)O[C@H]1CC[C@H]2[C@@H]3CCC4=CC(=O)CC[C@]4(C)[C@H]3CC[C@]12C
inactive: dose: 10.0 mg/kg/injection, schedule: Q01DX009 (ip), vehicle: Klucel (hydroxypropylcellulose) (HPC) 96 % of control | dose: 20.0 mg/kg/injection, schedule: Q01DX009 (ip), vehicle: Klucel (hydroxypropylcellulose) (HPC) 110 % of control | dose: 40.0 mg/kg/injection, schedule: Q01DX009 (ip), vehicle: Klucel (hydroxypropylcellulose) (HPC) 89 % of control | dose: 80.0 mg/kg/injection, schedule: Q01DX009 (ip), vehicle: Klucel (hydroxypropylcellulose) (HPC) 103 % of control

C=CCOc1cccc(OCC=C)c1C
inactive: [3] 106 % of control | [4] 97 % of control

O=CNNC=O
inactive: [3] 86 % of control | [4] 95 % of control | [5] 90 % of control

Cc1ccc(NC(=O)Nc2ccc(Cl)c(Cl)c2)cc1Cl
inactive: [6] 96 % of control | [7] 105 % of control

Cc1c(Cl)cccc1NC(=O)Nc1ccc(Cl)c(Cl)c1
inactive: dose: 12.5 mg/kg/injection, schedule: Q01DX009 (ip), vehicle: Klucel (hydroxypropylcellulose) (HPC) 105 % of control | [6] 92 % of control | [7] 91 % of control

CO[C@H]1/C=C/O[C@@]2(C)Oc3c(C)c(O)c4c(O)c(c(/C=N/N5C(C)CN(Cc6ccccc6)CC5C)c(O)c4c3C2=O)NC(=O)/C(C)=C\C=C\[C@H](C)[C@H](O)[C@@H](C)[C@@H](O)[C@@H](C)[C@H](OC(C)=O)[C@@H]1C (stereo partly specified)
inactive: dose: 8.0 mg/kg/injection, schedule: Q03HX008 (ip), vehicle: clinical formulation 94 % of control | dose: 8.0 mg/kg/injection, schedule: Q03HX024 (ip), vehicle: clinical formulation 88 % of control | dose: 16.0 mg/kg/injection, schedule: Q03HX008 (ip), vehicle: clinical formulation 90 % of control | dose: 25.0 mg/kg/injection, schedule: Q02DX Z (oral), vehicle: Klucel (hydroxypropylcellulose) (HPC) 98 % of control | dose: 32.0 mg/kg/injection, schedule: Q03HX024 (ip), vehicle: clinical formulation 88 % of control | [8] 123 % of control | dose: 50.0 mg/kg/injection, schedule: Q02DX Z (oral), vehicle: Klucel (hydroxypropylcellulose) (HPC) 116 % of control | dose: 64.0 mg/kg/injection, schedule: Q04DX005 (ip), vehicle: clinical formulation 93 % of control | dose: 64.0 mg/kg/injection, schedule: Q08DX003 (ip), vehicle: clinical formulation 91 % of control | dose: 100.0 mg/kg/injection, schedule: Q02DX Z (oral), vehicle: Klucel (hydroxypropylcellulose) (HPC) 103 % of control | [9] 110 % of control | dose: 200.0 mg/kg/injection, schedule: Q02DX Z (oral), vehicle: Klucel (hydroxypropylcellulose) (HPC) 114 % of control | dose: 256.0 mg/kg/injection, schedule: Q01DX001 (ip), vehicle: clinical formulation 86 % of control | dose: 400.0 mg/kg/injection, schedule: Q02DX Z (oral), vehicle: Klucel (hydroxypropylcellulose) (HPC) 88 % of control | dose: 800.0 mg/kg/injection, schedule: Q02DX Z (oral), vehicle: Klucel (hydroxypropylcellulose) (HPC) 113 % of control | dose: 1600.0 mg/kg/injection, schedule: Q02DX Z (oral), vehicle: Klucel (hydroxypropylcellulose) (HPC) 97 % of control

Cc1c(Cl)cccc1NC(=O)c1cccc(C(=O)Nc2cccc(Cl)c2C)c1
inactive: [1] 106 % of control | [2] 103 % of control | dose: 400.0 mg/kg/injection, schedule: Q01DX009 (ip), vehicle: Klucel (hydroxypropylcellulose) (HPC) 93 % of control

NNC(=O)c1cccc(C(=O)NN)c1
inactive: [3] 97 % of control | [4] 100 % of control | [5] 97 % of control

CCC12C=CCN3CCC4(c5cc(C(c6cccnc6)c6cc7ccccc7n6C)c(OC)cc5N(C)C4C(O)(C(=O)OC)C1OC(C)=O)C32 (stereo unspecified)
inactive: dose: 0.06 mg/kg/injection, schedule: Q01DX009 (ip), vehicle: water 109 % of control | dose: 0.13 mg/kg/injection, schedule: Q01DX009 (ip), vehicle: water 103 % of control | dose: 0.25 mg/kg/injection, schedule: Q01DX009 (ip), vehicle: water 100 % of control | dose: 0.5 mg/kg/injection, schedule: Q01DX009 (ip), vehicle: water 113 % of control | dose: 1.0 mg/kg/injection, schedule: Q01DX009 (ip), vehicle: water 110 % of control | dose: 2.0 mg/kg/injection, schedule: Q01DX009 (ip), vehicle: other 104 % of control | dose: 2.0 mg/kg/injection, schedule: Q01DX009 (ip), vehicle: water 107 % of control | dose: 4.0 mg/kg/injection, schedule: Q01DX009 (ip), vehicle: other 95 % of control | dose: 8.0 mg/kg/injection, schedule: Q01DX009 (ip), vehicle: other 101 % of control | dose: 16.0 mg/kg/injection, schedule: Q01DX009 (ip), vehicle: other 105 % of control | dose: 32.0 mg/kg/injection, schedule: Q01DX009 (ip), vehicle: other 106 % of control

CC(N)C(=O)NC(CC(=O)O)C(=O)O (stereo unspecified)
inactive: dose: 12.5 mg/kg/injection, schedule: Q01DX009 (ip), vehicle: saline 99 % of control | dose: 25.0 mg/kg/injection, schedule: Q01DX009 (ip), vehicle: saline 93 % of control | [8] 98 % of control | dose: 100.0 mg/kg/injection, schedule: Q01DX009 (ip), vehicle: saline 93 % of control | [9] 98 % of control

NC(Cc1ccc(O)cc1)C(=O)OCc1ccccc1 (stereo unspecified)
inactive: [3] 102 % of control | [4] 114 % of control | [5] 98 % of control

CCCCS(=O)CC(CO)NC(=O)/C=C/c1c(C)[nH]c(=O)[nH]c1=O (stereo unspecified)
inactive: dose: 0.63 mg/kg/injection, schedule: Q01DX009 (ip), vehicle: water 104 % of control | dose: 1.25 mg/kg/injection, schedule: Q01DX009 (ip), vehicle: water 102 % of control | dose: 2.5 mg/kg/injection, schedule: Q01DX009 (ip), vehicle: water 104 % of control | dose: 5.0 mg/kg/injection, schedule: Q01DX009 (ip), vehicle: water 99 % of control | dose: 10.0 mg/kg/injection, schedule: Q01DX009 (ip), vehicle: water 95 % of control

Nc1ncnc2c1ccn2C1OC(CO)C(O)C1O (stereo unspecified)
inactive: dose: 0.32 mg/kg/injection, schedule: Q01DX009 (ip), vehicle: saline 107 % of control | dose: 0.5 mg/kg/injection, schedule: Q01DX009 (ip), vehicle: Klucel (hydroxypropylcellulose) (HPC) 91 % of control | dose: 0.63 mg/kg/injection, schedule: Q01DX009 (ip), vehicle: saline 120 % of control | dose: 1.0 mg/kg/injection, schedule: Q01DX009 (ip), vehicle: Klucel (hydroxypropylcellulose) (HPC) 99 % of control | dose: 2.0 mg/kg/injection, schedule: Q01DX009 (ip), vehicle: Klucel (hydroxypropylcellulose) (HPC) 90 % of control
